Drawing on patent US10442803B2, “Tricyclic heterocycles as bet protein inhibitors” (Incyte Corporation, priority 2013, dated 2019), this text covers IC50 for 35 compounds.

Molecules are shown by their SMILES. Structures can show the parent of a compound that is named as a salt.

In the test the test system is KMS.12.BM cells. The experiment in a line: KMS.12.BM cell viability assay. Format: cell-based. To be noted: 72 h; KMS.12.BM human myeloma cells, 3 days, Cell Titer-GLO ATP quantitation; read-out: KMS cellular IC50. The protocol: KMS.12.BM cell line (human myeloma) was purchased from JCRB (Osaka, Japan) and maintained in RPMI with 10% FBS culture medium. To measure the cytotoxic activity of the compounds through ATP quantitation, the KMS.12.BM cells are plated in the RPMI culture medium at 5000 cells/well/per 100 μL into a 96-well polystyrene clear black tissue culture plate (Greiner-bio-one through VWR, NJ), in the presence or absence of a concentration range of test compounds. After 3 days, […] Cell Titer-GLO Luminescent (Promega, Madison, Wis.) cell culture agent is added to each well for 10 minutes at room temperature to stabilize the luminescent signal. This determines the number of viable cells in culture based on quantitation of the ATP present, which signals the presence of metabolically active cells. Luminescence is measured with the Top Count 384 (Packard Bioscience through Perkin Elmer, Boston, Mass.).
IC50 data for the Examples is presented in Table 4 as determined by Assay B1.
For orientation: ATP-based viability assays read luminescence as a measure of living cells.
With `Cc1nnc2ccc3c(ccn3C(C)c3ccccc3)n12` (racemic) [Example 4, 1-methyl-6-(1-phenylethyl)-6H-pyrrolo[2,3-e][1,2,4]triazolo[4,3-a]pyridine], the IC50 fell in the range of 1000 to 10000 nM.

Take `CCCCC(c1ccccc1)n1c(C)cc2c1ccc1nnc(C)n12` (racemic) [Example 24, 1,7-dimethyl-6-(1-phenylpentyl)-6H-pyrrolo[2,3-e][1,2,4]triazolo[4,3-a]pyridine]: the IC50 was in the range of 1000 to 10000 nM.

With `Cc1nnc2ccc3c(cc(-c4ccn(C(C)CC#N)n4)n3Cc3ccccc3)n12` (racemic) [Example 87, 3-[3-(6-benzyl-1-methyl-6H-pyrrolo[2,3-e][1,2,4]triazolo[4,3-a]pyridin-7-yl)-1H-pyrazol-1-yl]butanenitrile trifluoroacetate salt (racemate)], the IC50 is not above 1000 nM.

For the compound `Cc1nnc2ccc3c(cc(-c4ccn(CC(C)C#N)n4)n3Cc3ccccc3)n12` (racemic) [Example 88, 3-[3-(6-benzyl-1-methyl-6H-pyrrolo[2,3-e][1,2,4]triazolo[4,3-a]pyridin-7-yl)-1H-pyrazol-1-yl]-2-methylpropanenitrile trifluoroacetate salt (racemate)], the IC50 is not above 1000 nM.

For `Cc1cc2c(cc(NC3CCCN(C)C3)c3nnc(C)n32)n1Cc1ccccc1` (racemic) [Example 144, 6-benzyl-1,7-dimethyl-N-(1-methylpiperidin-3-yl)-6H-pyrrolo[2,3-e][1,2,4]triazolo[4,3-a]pyridin-4-amine (racemic)], the IC50 lay within 1000 to 10000 nM.

As to `Cc1cc2c(cc(NC3CCN(C)C3)c3nnc(C)n32)n1Cc1ccccc1` (racemic) [Example 145, 6-benzyl-1,7-dimethyl-N-(1-methylpyrrolidin-3-yl)-6H-pyrrolo[2,3-e][1,2,4]triazolo[4,3-a]pyridin-4-amine bis(trifluoroacetate) salt (racemic)], the IC50 was not above 1000 nM.

For `Cc1nnc2ccc3c(cc(-c4ncco4)n3Cc3cc(Cl)cc(CN4CCC(O)C4)c3)n12` (racemic) [Example 199, 1-(3-Chloro-5-{[1-methyl-7-(1,3-oxazol-2-yl)-6H-pyrrolo[2,3-e][1,2,4]triazolo[4,3-a]pyridin-6-yl]methyl}benzyl)pyrrolidin-3-ol bis(trifluoroacetate) salt (racemic)], the IC50 is not above 1000 nM.

Take `Cc1cc2c(cc(N[C@H]3CCN(C)[C@H](C)C3)c3nnc(C)n32)n1Cc1ccccc1` (racemic) [Example 225, 6-Benzyl-N-[(2R,4S)-1,2-dimethylpiperidin-4-yl]-1,7-dimethyl-6H-pyrrolo[2,3-e][1,2,4]triazolo[4,3-a]pyridin-4-amine and 6-Benzyl-N-[(2S,4R)-1,2-dimethylpiperidin-4-yl]-1,7-dimethyl-6H-pyrrolo[2,3-e][1,2,4]triazolo[4,3-a]pyridin-4-amine]: the IC50 was not above 1000 nM.

For the compound `Cc1cc2c(cc(N[C@H]3CC[C@@H](C#N)CC3)c3nnc(C)n32)n1Cc1ccccc1` (single isomer, unassigned) [Example 215 b, 4-[(6-benzyl-1,7-dimethyl-6H-pyrrolo[2,3-e][1,2,4]triazolo[4,3-a]pyridin-4-yl)amino]cyclohexanecarbonitrile trifluoroacetate salt], the IC50 was 1000 to 10000 nM.

Consider `Cc1nnc2ccc3c(ccn3Cc3ccccc3)n12` [Example 1, 6-benzyl-1-methyl-6H-pyrrolo[2,3-e][1,2,4]triazolo[4,3-a]pyridine], for which the IC50 is 1000 to 10000 nM.

Regarding `Cc1cc2c(ccc3nnc(C)n32)n1Cc1ccccc1` [Example 2, 6-benzyl-1,7-dimethyl-6H-pyrrolo[2,3-e][1,2,4]triazolo[4,3-a]pyridine], the IC50 is not above 1000 nM.

For `Cc1cc2c(ccc3nnc(C)n32)n1S(=O)(=O)c1ccccc1` [Example 2a, 1,7-dimethyl-6-(phenylsulfonyl)-6H-pyrrolo[2,3-e][1,2,4]triazolo[4,3-a]pyridine], the IC50 lay within 1000 to 10000 nM.

In the case of `Cc1nnc2ccc3c(ccn3S(=O)(=O)c3ccccc3)n12` [Example 3, 1-methyl-6-(phenylsulfonyl)-6H-pyrrolo[2,3-e][1,2,4]triazolo[4,3-a]pyridine], the IC50 was 1000 to 10000 nM.

As for `Cc1cc2c(ccc3nnc(C)n32)n1CCc1ccccc1` [Example 6, 1,7-dimethyl-6-(2-phenylethyl)-6H-pyrrolo[2,3-e][1,2,4]triazolo[4,3-a]pyridine], the IC50 was 1000 to 10000 nM.

With `Cc1cc2c(ccc3nnc(C)n32)n1Cc1ccccn1` [Example 7, 1,7-dimethyl-6-(pyridin-2-ylmethyl)-6H-pyrrolo[2,3-e][1,2,4]triazolo[4,3-a]pyridine], the IC50 lay in the range of 1000 to 10000 nM.

As for `Cc1cc2c(ccc3nnc(C)n32)n1Cc1ccccc1Cl` [Example 8, 6-(2-chlorobenzyl)-1,7-dimethyl-6H-pyrrolo[2,3-e][1,2,4]triazolo[4,3-a]pyridine], the IC50 is not above 1000 nM.

Turning to `Cc1cc2c(ccc3nnc(C)n32)n1Cc1cccc(Cl)c1` [Example 9, 6-(3-chlorobenzyl)-1,7-dimethyl-6H-pyrrolo[2,3-e][1,2,4]triazolo[4,3-a]pyridine], the IC50 is not above 1000 nM.

On to `Cc1cc2c(ccc3nnc(C)n32)n1Cc1ccc(Cl)cc1` [Example 10, 6-(4-chlorobenzyl)-1,7-dimethyl-6H-pyrrolo[2,3-e][1,2,4]triazolo[4,3-a]pyridine], for which the IC50 is not above 1000 nM.

As for `Cc1cc2c(ccc3nnc(C)n32)n1Cc1cccnc1` [Example 11, 1,7-dimethyl-6-(pyridin-3-ylmethyl)-6H-pyrrolo[2,3-e][1,2,4]triazolo[4,3-a]pyridine], the IC50 is 1000 to 10000 nM.

`Cc1cc2c(ccc3nnc(C)n32)n1CC1CCCC1` [Example 13, 6-(cyclopentylmethyl)-1,7-dimethyl-6H-pyrrolo[2,3-e][1,2,4]triazolo[4,3-a]pyridine]: the IC50 was in the range of 1000 to 10000 nM.

Regarding `Cc1cc2c(ccc3nnc(C)n32)n1Cc1ccccc1F` [Example 14, 6-(2-fluorobenzyl)-1,7-dimethyl-6H-pyrrolo[2,3-e][1,2,4]triazolo[4,3-a]pyridine], the IC50 was not above 1000 nM.

In the case of `Cc1cc2c(ccc3nnc(C)n32)n1Cc1cccc(F)c1` [Example 15, 6-(3-fluorobenzyl)-1,7-dimethyl-6H-pyrrolo[2,3-e][1,2,4]triazolo[4,3-a]pyridine], the IC50 is not above 1000 nM.

For the compound `Cc1cc2c(ccc3nnc(C)n32)n1Cc1ccc(F)cc1` [Example 16, 6-(4-fluorobenzyl)-1,7-dimethyl-6H-pyrrolo[2,3-e][1,2,4]triazolo[4,3-a]pyridine], the IC50 was not above 1000 nM.

In the case of `Cc1ccccc1Cn1c(C)cc2c1ccc1nnc(C)n12` [Example 17, 1,7-dimethyl-6-(2-methylbenzyl)-6H-pyrrolo[2,3-e][1,2,4]triazolo[4,3-a]pyridine], the IC50 was not above 1000 nM.

As to `Cc1cccc(Cn2c(C)cc3c2ccc2nnc(C)n23)c1` [Example 18, 1,7-dimethyl-6-(3-methylbenzyl)-6H-pyrrolo[2,3-e][1,2,4]triazolo[4,3-a]pyridine], the IC50 was not above 1000 nM.

On to `Cc1ccc(Cn2c(C)cc3c2ccc2nnc(C)n23)cc1` [Example 19, 1,7-dimethyl-6-(4-methylbenzyl)-6H-pyrrolo[2,3-e][1,2,4]triazolo[4,3-a]pyridine], for which the IC50 is not above 1000 nM.

`Cc1cc2c(ccc3nnc(C)n32)n1Cc1cccc(C#N)c1` [Example 20, 3-[(1,7-dimethyl-6H-pyrrolo[2,3-e][1,2,4]triazolo[4,3-a]pyridine-6-yl)methyl]benzonitrile]: the IC50 is not above 1000 nM.

As to `Cc1cc2c(ccc3nnc(C)n32)n1Cc1ccc2ccccc2n1` [Example 21, 1,7-dimethyl-6-(quinolin-2-ylmethyl)-6H-pyrrolo[2,3-e][1,2,4]triazolo[4,3-a]pyridine], the IC50 is not above 1000 nM.

Take `COc1cccc(Cn2c(C)cc3c2ccc2nnc(C)n23)c1` [Example 22, 6-(3-methoxybenzyl)-1,7-dimethyl-6H-pyrrolo[2,3-e][1,2,4]triazolo[4,3-a]pyridine]: the IC50 is not above 1000 nM.

As to `Cc1cc2c(ccc3nnc(C)n32)n1Cc1cccc(O)c1` [Example 23, 3-[(1,7-dimethyl-6H-pyrrolo[2,3-e][1,2,4]triazolo[4,3-a]pyridin-6-yl)methyl]phenol], the IC50 was not above 1000 nM.

Regarding `CC(=O)Nc1cccc(Cn2c(C)cc3c2ccc2nnc(C)n23)c1` [Example 25, N-{3-[(1,7-dimethyl-6H-pyrrolo[2,3-e][1,2,4]triazolo[4,3-a]pyridin-6-yl)methyl]phenyl}acetamide trifluoroacetate salt], the IC50 is not above 1000 nM.

Regarding `Cc1cc2c(ccc3nnc(C)n32)n1Cc1cccc(CO)c1` [Example 26, {3-[(1,7-dimethyl-6H-pyrrolo[2,3-e][1,2,4]triazolo[4,3-a]pyridin-6-yl)methyl]phenyl}methanol trifluoroacetate salt], the IC50 was not above 1000 nM.

Consider `Cc1cc2c(ccc3nnc(C)n32)n1Cc1cccc(CN2CC(O)C2)c1` [Example 27, 1-(3-((1,7-dimethyl-6H-pyrrolo[2,3-e][1,2,4]triazolo[4,3-a]pyridin-6-yl)methyl)benzyl)azetidin-3-ol bis-trifluoroacetate salt], for which the IC50 was not above 1000 nM.

For the compound `Cc1cc2c(ccc3nnc(C)n32)n1Cc1cccc(CN2CCC2)c1` [Example 28, 6-[3-(azetidin-1-ylmethyl)benzyl]-1,7-dimethyl-6H-pyrrolo[2,3-e][1,2,4]triazolo[4,3-a]pyridine], the IC50 was not above 1000 nM.

With `Cc1cc2c(ccc3nnc(C)n32)n1Cc1cccc(C(N)=O)c1` [Example 30, 3-((1,7-dimethyl-6H-pyrrolo[2,3-e][1,2,4]triazolo[4,3-a]pyridin-6-yl)methyl)benzamide trifluoroacetate salt], the IC50 fell in the range of 1000 to 10000 nM.

In general, IC50 refers to the concentration that gives 50% inhibition.
